Assays:
Format in all cases: in vivo
[1] = tested on: wheat (Triticum aestivum); assay: Test A pre-/postemergence: wheat
Method in brief: (§1)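 Visual 0–100 injury ratings (0 no effect, 100 complete control) taken about ten days after treatment, relative to untreated controls. Preemergence treatment was a directed soil spray; postemergence plants were 2–10 cm tall at one- to two-leaf stage. Soil: loam/sand blend.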

[2] = tested on: galium (catchweed bedstraw, Galium aparine); assay: Test C pre-/postemergence: galium
Method in brief: (§2)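 Preemergence on seeds in loam/sand, postemergence on 2–18 cm (1–4-leaf) plants in peat-based medium; compounds in non-phytotoxic solvent with surfactant. After 13–15 days in greenhouse, visual rating versus controls, 0 (no effect) to 100 (complete control).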

[3] = tested on: lambsquarters (Chenopodium album); assay: Test C pre-/postemergence: lambsquarters
Method in brief: as §2

[4] = tested on: barnyardgrass (Echinochloa crus-galli); assay: Test B flooded paddy: barnyardgrass; settings: Flood; 125 g ai/ha; applied to paddy water at 2-leaf stage; visually evaluated after 13 to 15 days
Method in brief: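 Plants were grown to the 2-leaf stage, then pots were flooded to 3 cm above the soil and compounds were applied directly into the paddy water. Water depth was held for the whole test; after 13 to 15 days in a greenhouse, injury was visually rated against untreated controls (0 = no effect, 100 = complete control).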

[5] = tested on: morningglory (Ipomoea coccinea); assay: Test C pre-/postemergence: morningglory
Method in brief: as §2

[6] = tested on: foxtail, giant (giant foxtail, Setaria faberii); assay: Test C pre-/postemergence: foxtail, giant
Method in brief: as §2

corn (Zea mays) = assay: Test C pre-/postemergence: corn
Method in brief: as §2

[7] = tested on: pigweed (Amaranthus retroflexus); assay: Test A pre-/postemergence: pigweed
Method in brief: as §1

[8] = tested on: ryegrass, Italian (Italian ryegrass, Lolium multiflorum); assay: Test C pre-/postemergence: ryegrass, Italian
Method in brief: as §2

[9] = tested on: large crabgrass (Digitaria sanguinalis); assay: Test C pre-/postemergence: large crabgrass
Method in brief: as §2

[10] = Postemergence, 125 g ai/ha, 0 to 100 scale, 0 is no effect, 100 is complete control
[11] = Postemergence, 500 g ai/ha, 0 to 100 scale, 0 is no effect, 100 is complete control
[12] = Preemergence, 125 g ai/ha, 0 to 100 scale where 0 is no effect and 100 is complete control
[13] = Preemergence, 500 g ai/ha, 0 to 100 scale (0 no effect, 100 complete control)
[14] = Postemergence, 31 g ai/ha, scale 0 to 100 (0 no effect, 100 complete control)
[15] = Postemergence, 62 g ai/ha, scale 0 to 100 (0 no effect, 100 complete control)
[16] = Postemergence, 125 g ai/ha, scale 0 to 100, 0 no effect, 100 complete control
[17] = Postemergence, 250 g ai/ha, scale 0 to 100 (0 no effect, 100 complete control)
[18] = Preemergence, 31 g ai/ha, scale 0 (no effect) to 100 (complete control)
[19] = Preemergence, 62 g ai/ha, scale of 0 to 100, 0 is no effect, 100 is complete control
[20] = Preemergence, 125 g ai/ha, scale 0 to 100, 0 no effect, 100 complete control
[21] = Preemergence, 250 g ai/ha, scale 0 to 100, 0 no effect, 100 complete control
[22] = Postemergence, 250 g ai/ha, scale 0 to 100

Compound: CCCc1nn(-c2ccc(F)cc2F)nc1Oc1ccnc(C(F)(F)F)c1 [Compound 179]
- Plant response rating, Wheat [1, 10]: 30
- Wheat plant response rating [1, 11]: 40
- Plant response rating, Wheat [1, 12]: 20
- Plant response rating, Wheat [1, 13]: 50
- Plant response rating, Galium [2, 14]: 90
- Plant response rating, Galium [2, 15]: 90
- Plant response rating, Galium [2, 16]: 90
- Plant response rating, Galium [2, 17]: 90
- Plant response rating, Galium [2, 18]: 80
- Plant response rating, Galium [2, 19]: 100
- Plant response rating, Galium [2, 20]: 100
- Plant response rating, Galium [2, 21]: 100
- Plant response rating, Lambsquarters [3, 14]: 80
- Plant response rating, Lambsquarters [3, 15]: 80
- Plant response rating, Lambsquarters [3, 16]: 85
- Plant response rating, Lambsquarters [3, 17]: 90
- Plant response rating, Lambsquarters [3, 18]: 98
- Plant response rating, Lambsquarters [3, 19]: 98
- Plant response rating, Lambsquarters [3, 20]: 98
- Plant response rating, Lambsquarters [3, 21]: 100
- Plant response rating, Barnyardgrass (0 to 100 scale, 0 is no effect, 100 is complete control) [4]: 0
- Plant response rating, Morningglory [5, 14]: 65
- Plant response rating, Morningglory [5, 15]: 80
- Plant response rating, Morningglory [5, 16]: 80
- Plant response rating, Morningglory [5, 17]: 90
- Plant response rating, Morningglory [5, 18]: 5
- Plant response rating, Morningglory [5, 19]: 40
- Plant response rating, Morningglory [5, 20]: 55
- Plant response rating, Morningglory [5, 21]: 65
- Plant response rating, Foxtail, Giant [6, 14]: 35
- Plant response rating, Foxtail, Giant [6, 15]: 40
- Plant response rating, Foxtail, Giant [6, 16]: 55
- Plant response rating, Foxtail, Giant [6, 22]: 80
- Plant response rating, Foxtail, Giant [6, 18]: 100
- Plant response rating, Foxtail, Giant [6, 19]: 100
- Plant response rating, Foxtail, Giant [6, 20]: 100
- Plant response rating, Foxtail, Giant [6, 21]: 100
- Plant response rating, Corn (corn (Zea mays); [14]): 15
- Plant response rating, Corn (corn (Zea mays); [15]): 15
- Plant response rating, Corn (corn (Zea mays); [16]): 15
- Plant response rating, Corn (corn (Zea mays); [22]): 15
- Plant response rating, Corn (corn (Zea mays); [18]): 5
- Plant response rating, Corn (corn (Zea mays); [19]): 20
- Plant response rating, Corn (corn (Zea mays); [20]): 20
- Plant response rating, Corn (corn (Zea mays); [21]): 20
- Plant response rating, Pigweed [7, 10]: 100
- Pigweed plant response rating [7, 11]: 100
- Plant response rating, Pigweed [7, 12]: 100
- Plant response rating, Pigweed [7, 13]: 100
- Plant response rating, Ryegrass, Italian [8, 14]: 10
- Plant response rating, Ryegrass, Italian [8, 15]: 15
- Plant response rating, Ryegrass, Italian [8, 16]: 25
- Plant response rating, Ryegrass, Italian [8, 17]: 40
- Plant response rating, Ryegrass, Italian [8, 18]: 45
- Plant response rating, Ryegrass, Italian [8, 19]: 95
- Plant response rating, Ryegrass, Italian [8, 20]: 95
- Plant response rating, Ryegrass, Italian [8, 21]: 95
- Plant response rating, Crabgrass, Large [9, 14]: 20
- Plant response rating, Crabgrass, Large [9, 15]: 20
- Plant response rating, Crabgrass, Large [9, 16]: 35
- Plant response rating, Crabgrass, Large [9, 22]: 80
- Plant response rating, Crabgrass, Large [9, 18]: 100
- Plant response rating, Crabgrass, Large [9, 19]: 100
- Plant response rating, Crabgrass, Large [9, 20]: 100
- Plant response rating, Crabgrass, Large [9, 21]: 100

From patent US9302999B2, “Substituted triazoles as herbicides” (E. I. DU PONT DE NEMOURS AND COMPANY, priority 2012, dated 2016)
